How the values were obtained:
Assay type in all cases: in vivo
[1] = tested on: Housefly [Musca domestica]; experiment: Housefly insecticidal test (HF); conditions: per 25 female houseflies, 48 hours
[2] = tested on: Tobacco Budworm [Heliothis virescens (Fabricius)] eggs; experiment: Tobacco budworm egg test (TBW-E); conditions: percent in solution
[3] = tested on: Cabbage Looper [Trichoplusia ni (Hubner)]; experiment: Cabbage looper test (CL); conditions: second-instar larvae, 3-5 days, percent in solution
[4] = tested on: Aster Leafhopper [Macrosteles fascifrens (Stal)]; experiment: Aster leafhopper test (LH); conditions: adults/nymphs, 48 hours, percent in solution
[5] = tested on: Maize weevil [Sitophilus Zeamais (Motschulsky)]; experiment: Maize weevil test (MW); conditions: adult weevils, treated corn seeds, 48 hours, percent in solution
Summary of the method: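 Adult weevils (10) were placed with four corn seeds that had been dipped 2-3 s in compound dissolved in 50:50 acetone:water, then dried, and held at about 25° C. Mortality was scored at 48 h. LC50 was taken from dosage-mortality curves and expressed as percent compound in solution, from a 0.01% top concentration.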

SMILES | LC50 HF [1] | LC50 TBW E [2] | LC50 CL [3] | LC50 LH [4] | LC50 MW [5]
CC(C)C(=Nc1ccc(OC(F)(F)F)cc1)OCc1cccc(Oc2ccccc2)c1 [Compound 70] | < 100 µg | 0.01% | < 0.1% | > 0.05% | –
CC(C)C(=Nc1c(F)c(F)cc(F)c1F)OCc1cccc(Oc2ccccc2)c1 [Compound 57] | > 100 µg | 0.1% | 0.004% | 0.0005% | –
CC(C)C(=Nc1ccc(Br)cc1)OCc1cccc(Oc2ccccc2)c1 [Compound 131] | 17 µg | > 0.1% | 0.0045% | 0.005% | –
CCc1cccc(N=C(OCc2cccc(Oc3ccccc3)c2)C(C)(C)C)c1 [Compound 162] | > 100 µg | > 0.1% | 0.035% | > 0.05% | –
CCCC(=Nc1ccc2c(c1)OCO2)OCc1cccc(Oc2ccccc2)c1 [Compound 188] | 12 µg | > 0.1% | 0.002% | > 0.05% | –
CC(C)C(=Nc1ccc(I)cc1)OCc1cccc(Oc2ccccc2)c1 [Compound 137] | 18 µg | 0.04% | 0.003% | 0.008% | –
CC(C)CC(=Nc1cc(Cl)cc(Cl)c1)OCc1cccc(Oc2ccccc2)c1 [Compound 10] | > 100 µg | > 0.1% | 0.01% | > 0.05% | –
CC(C)C(=Nc1c(Cl)cc([N+](=O)[O-])cc1Cl)OCc1cccc(Oc2ccccc2)c1 [Compound 92] | > 100 µg | > 0.1% | 0.015% | > 0.05% | –
CC(C)(C)C(=Nc1ccc(Br)cc1)OCc1cccc(Oc2ccccc2)c1 [Compound 135] | > 100 µg | > 0.1% | 0.004% | > 0.05% | –
COc1ccc(OC)c(N=C(OCc2cccc(Oc3ccccc3)c2)C(C)C)c1 [Compound 69] | > 100 µg | > 0.1% | 0.09% | > 0.05% | –
CC(C)(Cl)C(=Nc1ccc(C#N)c(Cl)c1)OCc1cccc(Oc2ccccc2)c1 [Compound 108] | 44 µg | > 0.1% | 0.002% | > 0.01% | –
CC(C)C(=Nc1cccc([N+](=O)[O-])c1)OCc1cccc(Oc2ccc(Cl)cc2)c1 [Compound 271] | 27 µg | 0.1% | 0.0004% | > 0.05% | –
CC(C)C(=Nc1ccc2c(c1)CCC2)OCc1cccc(Oc2ccccc2)c1 [Compound 187] | 15 µg | > 0.1% | 0.0025% | 0.0025% | –
CC(C)C(=Nc1ccc2c(c1)OCO2)OCc1cccc(Oc2ccc(F)cc2)n1 [Compound 465] | 8 µg | 0.027% | 0.0017% | 0.0025% | –
Cc1ccc(N=C(OCc2cccc(Oc3ccccc3)c2)C(C)C)cc1Cl [Compound 90] | > 100 µg | 0.016% | > 0.1% | 0.001% | –
CC(C)C(=Nc1cc(Cl)cc(Cl)c1)OCc1cccc(Oc2ccccc2)c1 [Compound 16] | 20 µg | 0.04% | 0.004% | 0.0005% | –
CC(C)C(=Nc1cc(F)ccc1Cl)OCc1ccc(F)c(Oc2ccc(F)cc2)c1 [Compound 303] | > 100 µg | > 0.1% | 0.0015% | 0.0005% | –
Fc1ccc(Oc2cccc(COC(=Nc3ccc(F)c(Cl)c3)C(F)(F)C(F)(F)F)c2)cc1 [Compound 258] | > 100 µg | > 0.1% | 0.003% | > 0.05% | –
CC(C)C(=Nc1ccc(C(C)C)cc1)OCc1cccc(Oc2ccc(F)cc2)c1 [Compound 228] | > 100 µg | > 0.1% | 0.0025% | > 0.05% | –
Cc1ccc(Oc2cccc(COC(=Nc3ccc(F)c(Cl)c3)C(C)C)c2)cc1 [Compound 225] | > 100 µg | > 0.1% | 0.0025% | > 0.05% | –
Fc1ccc(N=C(OCc2cccc(Oc3ccccc3)c2)C(Cl)=C(Cl)Cl)cc1 [Compound 49] | > 100 µg | > 0.05% | 0.007% | > 0.05% | –
CSc1ccc(Oc2cccc(COC(=Nc3ccc(F)cc3)C(C)C)c2)cc1 [Compound 257] | > 100 µg | > 0.1% | 0.008% | > 0.05% | –

SMILES | LC50 HF [1] | LC50 TBW E [2] | LC50 CL [3] | LC50 LH [4] | LC50 MW [5]
CC(C)C(=Nc1ccc(C(F)(F)F)c(Cl)c1)OCc1cccc(Oc2ccccc2)c1 [Compound 83] | > 100 µg | > 0.1% | 0.007% | > 0.05% | –
CC(C)C(=Nc1ccc(Cl)cc1)OC(C)c1cccc(Oc2ccccc2)c1 (stereo not shown) [Compound 457] | > 100 µg | > 0.05% | 0.009% | > 0.05% | –
CCc1ccc(N=C(OCc2cccc(Oc3ccccc3)c2)C(C)C)cc1 [Compound 161] | 15 µg | 0.07% | 0.0014% | 0.002% | –
CCc1ccc(N=C(OCc2cccc(Oc3ccc(F)cc3)c2)C(C)C)cc1 [Compound 159] | 25 µg | 0.08% | 0.001% | 0.0025% | –
CC(C)C(=Nc1cccc(C(F)(F)F)c1)OCC#CCOc1ccccc1 [Compound 548] | > 100 µg | > 0.1% | < 0.1% | > 0.05% | –
COc1c(Cl)cc(N=C(OCc2cccc(Oc3ccccc3)c2)C(C)C)cc1Cl [Compound 91] | 37 µg | > 0.01% | 0.002% | 0.003% | –
Cc1ccc(N=C(OCc2cccc(Oc3ccc(Cl)cc3)c2)C(C)C)cc1Cl [Compound 403] | < 100 µg | > 0.1% | > 0.1% | – | > 0.01%
CC(C)C(=Nc1cccc([N+](=O)[O-])c1)OCc1cccc(Oc2ccccc2)c1 [Compound 302] | 15 µg | > 0.1% | 0.003% | – | > 0.01%
COc1ccc(Oc2cccc(COC(=Nc3ccc(C(C)(C)C)cc3)C(C)C)c2)cc1 [Compound 345] | > 100 µg | > 0.1% | 0.018% | – | > 0.01%
CC(C)C(=Nc1ccc(Br)cc1)OCc1coc(Cc2ccccc2)c1 [Compound 478] | 15 µg | > 0.1% | 0.0037% | – | > 0.01%
CC(C)C(=Nc1cccc(C(F)(F)F)c1)OCc1ccnc(Oc2ccccc2)c1 [Compound 507] | 93 µg | > 0.1% | 0.002% | – | > 0.01%
CC(C)C(=Nc1ccc(OCC(F)(F)F)cc1)OCc1ccc(F)c(Oc2ccccc2)c1 [Compound 422] | < 100 µg | 0.05% | 0.00075% | – | > 0.01%
CC(C)C(=Nc1ccc(Cl)cc1)OCc1cccc(Oc2ccc(Cl)cc2)n1 [Compound 554] | > 100 µg | 0.04% | 0.00075% | – | > 0.01%
CC(C)C(=Nc1ccc(OCC(F)(F)F)c(Cl)c1)OCc1cccc(Oc2ccc(F)cc2)c1 [Compound 420] | > 100 µg | 0.05% | 0.00075% | – | > 0.01%
CC(C)C(=Nc1ccc(C(F)(F)F)cc1)OCc1cccc(Oc2ccccc2)n1 [Compound 504] | < 100 µg | 0.05% | 0.00025% | – | 0.01%
CC(C)C(=Nc1ccc(Cl)c(C(F)(F)F)c1)OCc1ccc(F)c(Oc2ccccc2)c1 [Compound 388] | < 100 µg | > 0.1% | 0.0012% | – | > 0.01%
CC(C)C(=Nc1cc(F)c(Cl)cc1Cl)OCc1ccc(F)c(Oc2ccc(F)cc2)c1 [Compound 292] | 41 µg | 0.05% | 0.00075% | – | > 0.01%
CC(C)c1ccc(N=C(OCc2cccc(Oc3ccccc3)c2)C2CCC2)cc1 [Compound 339] | > 100 µg | > 0.1% | 0.017% | – | > 0.01%
CC(C)C(=Nc1ccc(Br)c(Br)c1)OCc1ccc(F)c(Oc2ccc(F)cc2)c1 [Compound 383] | < 100 µg | 0.038% | 0.00029% | – | > 0.01%
COc1ccc(N=C(OCc2ccc(F)c(Oc3ccccc3)c2)C(C)C)cc1F [Compound 435] | < 100 µg | 0.04% | 0.002% | – | > 0.01%
CCOc1ccc(N=C(OCc2cccc(Oc3ccccc3)c2)C(C)C)cc1Cl [Compound 368] | < 100 µg | 0.04% | 0.002% | – | > 0.01%

Reference: US5089623A, “Certain imidate insecticides” (Imperial Chemical Industries Plc, priority 1990, dated 1992)
